Assay [1] concerns the target T1, HIV protease (Human immunodeficiency virus type 1 group M subtype B, UniProt P04585).
T1 construct: and purified protease
Put plainly: HIV Protease Assay. The assay is classed as biochemical. An outline of the steps: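 Purified protease cleaved 450 μM octapeptide substrate in 50 mM sodium acetate pH 5.5 with 100 μg/ml BSA for 30 minutes at 37° C; product analyzed by reverse-phase HPLC at UV220 after H3PO4 quench. Inhibitors tested at final 10 μM with 4% DMSO.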

Assay [2] concerns RF strain of HIV (CEM-SS cells). Put plainly: Cell Culture Anti-HIV Activity (cell viability, formazan). The assay is classed as cell-based. The note with it: Human immunodeficiency virus 1, CEM-SS, 144 h, CEM-SS cells, RF strain of HIV, multiplicity of infection 0.04, 6 days at 37° C., 450 nm; read-out: HIV (CEM Cells) IC50. An outline of the steps:
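CEM-SS cells (5000/well) infected with HIV RF at MOI 0.04, exposed to half-log serial compound dilutions, incubated 6 days at 37° C. Viability read by tetrazolium reduction to formazan, absorbance 450 nm. IC50 is the concentration raising formazan in infected cells to 50% of uninfected, drug-free cells.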

Where [3] appears, read: pH 5.5, 10 μM inhibitor, 4% DMSO, 450 μM substrate, pH 5.5, 30 minutes at 37° C., RP-HPLC, read-out: HIV Protease % Inhibition at 10 μM.

Like-named read-outs stand apart in the source and are kept apart here.

The term inhibition denotes the share of the control response that was lost under treatment. What is called IC50 is the concentration that gives 50% inhibition. As for `CC(C)(C)NC(=O)N[C@@H](Cc1ccccc1)[C@H](O)CNC[C@@H](O)[C@H](Cc1ccccc1)NC(=O)OC(C)(C)C` [Compound 50, [1S-[1R*,2S*(2S*,3R*)]]-[3-[[3-[[[(1,1-Dimethylethyl)amino]carbonyl]amino]-2-hydroxy-4-phenylbutyl]amino]-2-hydroxy-1-(phenylmethyl)propyl]carbamic acid, 1,1-dimethylethyl ester], in assay [1] (setting [3]), the inhibition at 10 µM is 97%. In addition, in assay [2], the IC50 is 220 nM.
In the same order, the values of `CC(C)[C@H](NC(=O)OCc1ccccc1)C(=O)N[C@@H](Cc1ccccc1)[C@H](O)CNC[C@@H](O)[C@H](Cc1ccccc1)NC(=O)OC(C)(C)C` [Compound 52, [S-[1R*,2S*(2S*, 3R*)]-N-[3-[[3-[[(1,1-Dimethylethoxy)carbonyl]amino]-2-hydroxy-4-phenylbutyl]-amino]-2-hydroxy-1-(phenylmethyl)propyl-N^2-[(phenylmethoxy)carbonyl]-L-valinamide] are 100% and 200 nM.
For `CC(C)(C)OC(=O)N[C@@H](Cc1ccccc1)[C@H](O)CNC[C@@H](O)[C@H](Cc1ccccc1)NC(=O)[C@H](CC(N)=O)NC(=O)OCc1ccccc1` [Compound 53, [1S-[1R*,2S*(2S*3R*)]]-N-[3-[[3[[(1,1-Dimethylethoxy)-carbonyl]amino]-2-hydroxy-4-phenylbutyl]amino]-2-hydroxy-1-(phenylmethyl)propyl]-N^2 [(phenylmethoxy)-carbonyl]-L-aspartamide], in that order: 99% and 540 nM.
For `CC(C)[C@H](NC(=O)OC(C)(C)C)C(=O)N[C@@H](Cc1ccccc1)[C@H](O)CNC[C@@H](O)[C@H](Cc1ccccc1)NC(=O)OC(C)(C)C` [Compound 58, [S-[1R*,2S*(2S*,3R*)]-N-[3-[[3-[[(1,1-Dimethylethoxy)carbonyl]amino]-2-hydroxy-4-phenylbutyl]amino]-2-hydroxy-1-(phenylmethyl)-propyl-N^2-[(1,1-dimethylethoxy)-carbonyl]-L-valinamide], in that order: 57% and 1000 nM.
In the case of `CC(C)(C)CC(=O)N[C@@H](Cc1ccccc1)[C@H](O)CNC[C@@H](O)[C@H](Cc1ccccc1)NC(=O)OC(C)(C)C` [Compound 60, [1S-[1R*,2S*(2S*,3R*)]]-[3 [[3-[(3,3-Dimethyl-1-oxybutyl)amino]-2-hydroxy-4-phenylbutyl]amino]-2-hydroxy-1-(phenylmethyl)-propyl]carbamic acid, 1,1-dimethylethyl ester], the inhibition at 10 µM in assay [1] (pH 5.5, read-out: HIV Protease % Inhibition at 10 μM) was 78%. Further, in assay [2], the IC50 is 1200 nM.
In the case of `CC(C)[C@H](NC(=O)[C@H](Cc1ccccc1)NC(=O)OCc1ccccc1)C(=O)N[C@@H](Cc1ccccc1)[C@H](O)CNC[C@@H](O)[C@H](Cc1ccccc1)NC(=O)OC(C)(C)C` [Compound 62, [1S-[1R*,2S*(2S*,3R*)]-N-[3-[[3-[[(1,1-Dimethylethoxy)carbonyl]amino]-2-hydroxy-4-phenylbutyl]amino]-2-hydroxy-1-(phenyl-methyl)propyl]-N^2-[(phenylmethoxy)carbonyl]-L-phenylalanyl]-L-valinamide], the inhibition at 10 µM in assay [1] (setting [3]) worked out at 98%. In addition, the IC50 in assay [2] was 50 nM.
Take `CC(C)(C)OC(=O)N[C@@H](Cc1ccccc1)[C@H](O)CNC[C@@H](O)[C@H](Cc1ccccc1)NC(=O)c1ccc2ccccc2c1` [Compound 64, [1S-[1R*,2S*(2S*,3R*)]]-[2-Hydroxy-3-[[2-hydrox-3-[(2-naphthalenyl-carbonyl)amino]-4-phenylbutyl]amino]-1-(phenylmethyl)propyl]carbamic acid, 1,1-dimethylethyl ester]: in assay [1] (setting [3]), the inhibition at 10 µM was found to be 72%. Moreover, the half-inhibitory concentration (IC50) in assay [2] was greater than 5000 nM.
Consider `CC(C)[C@@H](C(=O)N[C@@H](Cc1ccccc1)[C@H](O)CNC[C@@H](O)[C@H](Cc1ccccc1)NC(=O)OC(C)(C)C)N(C)C(=O)OCc1ccccc1` [Compound 66, [S-[1R*,2S*(2S*,3R*)]]-N-[3-[[3-[(1,1-Dimethylethoxy)carbonyl)amino]-2-hydroxy-4-[phenylbutyl]amino]-2-hydroxy-1-(phenylmethyl)propyl]-N^2-methyl-N^2 [(phenylmethoxy)-carbonyl]-L-valinamide], for which, in assay [1] (setting [3]), the inhibition at 10 µM turned out to be 99%. Also, the IC50 in assay [2] was 270 nM.
In the same order, the values of `CC(C)[C@H](NC(=O)OC1CCc2ccccc21)C(=O)N[C@@H](Cc1ccccc1)[C@H](O)CNC[C@@H](O)[C@H](Cc1ccccc1)NC(=O)OC(C)(C)C` (stereo partly drawn) [Compound 67, [S-[1R*,2S*(2S*,3R*)]]-N^2-[[2,3-Dihydro-1H-inden-1-yl)oxy]carbonyl]-N-[3-[[3-[[(1,1-dimethylethoxy)carbonyl]amino]-2-hydroxy-4-phenylbutyl]amino]-2-hydroxy-1-(phenylmethyl)propyl]-L-valinamide] are 100% and 40 nM.
For the molecule `CC(C)[C@H](NC(=O)OCc1ccc(-c2ccccc2)cc1)C(=O)N[C@@H](Cc1ccccc1)[C@H](O)CNC[C@@H](O)[C@H](Cc1ccccc1)NC(=O)OC(C)(C)C` [Compound 68, [S-[1R*,2S*(2S*,3R*)]]-N^2-[([1,1-Biphenyl]-4-ylmethoxy]carbonyl-N-[3-[[3-[[(1,1-dimethylethoxy)carbonyl]amino]-2-hydroxy-4-phenylbutyl]amino]-2-hydroxy-l-(phenylmethyl)[propyl]-L-valinamide], in assay [1] (setting [3]), the inhibition at 10 µM is 99%. For the same molecule, the IC50 in assay [2] was determined as 110 nM.
In the same order, the values of `CC(C)[C@H](NC(=O)OCc1ccccn1)C(=O)N[C@@H](Cc1ccccc1)[C@H](O)CNC[C@@H](O)[C@H](Cc1ccccc1)NC(=O)OC(C)(C)C` [Compound 70, [S-[1R*,2S*(2S*,3R*)]]-N-[3-[[3-[[(1,1-Dimethylethoxy)carbonyl]amino]-2-hydroxy-4-phenylbutyl]amino]-2-hydroxy-1-(phenylmethyl)-propyl]-N^2-(2-pyridinylmethoxy)carbonyl]-L-valinamide] are 100% and 500 nM.
For the molecule `CC(C)[C@@H](NC(=O)OCc1ccccc1)C(=O)N[C@@H](Cc1ccccc1)[C@H](O)CNC[C@@H](O)[C@H](Cc1ccccc1)NC(=O)OC(C)(C)C` [Compound 71, [R-[1S*,2R*(2R*, 3S*)]]-N-[3-[[3-[[(1,1-Dimethylethoxy)carbonyllamino]2-hydroxy-4-phenylbutyl]amino]-2-hydroxy-1-phenylmethyl)propyl]-N^2-[(phenylmethoxy)-carbonyl]-D-valinamide], in assay [1] (setting [3]), the inhibition at 10 µM turned out to be 58%. For the same molecule, in assay [2], the IC50 turned out to be 1200 nM.
In the same order, the values of `CC(C)C(C)(NC(=O)OCc1ccccc1)C(=O)N[C@@H](Cc1ccccc1)[C@H](O)CNC[C@@H](O)[C@H](Cc1ccccc1)NC(=O)OC(C)(C)C` (stereo partly drawn) [Compound 73, [(S,R)-3-[[(R,S)-3-[[2-[[(Phenyl-methoxy)carbonyl)amino]-2,3-dimethyl-1-oxy-butyl]amino]-2-hydroxy-4-phenylbutyl]amino]-2-hydroxy-1-(phenylmethyl)-propyl]carbamic acid, 1,1-dimethylethyl ester] are 99% and 600 nM.
For `CC(C)[C@H](NC(=O)N(C)Cc1ccccn1)C(=O)N[C@@H](Cc1ccccc1)[C@H](O)CNC[C@@H](O)[C@H](Cc1ccccc1)NC(=O)[C@@H](NC(=O)N(C)Cc1ccccn1)C(C)C` [Compound 75, [S-(1R*,2S*)]-N,N'-[Iminobisr[2-hydroxy-1-(phenylmethyl)-3,1-propanediyl]bisr[N^2-[[methyl(2-pyridinylmethyl)amino]carbonyl]-L-valinamide], in that order: 100% and 5000 nM.

(Values after patent US5760036A, “Aminediol protease inhibitors” (E. R. Squibb & Sons, Inc., priority 1995, dated 1998).)
